Test results published in ChEMBL document CHEMBL6127049, “Discovery of the selective and nanomolar inhibitor of DPP-4 more potent than sitagliptin by structure-guided rational design” (Eur J Med Chem, 2024).
Activity calls are given as the source filed them. The calls are words filed in the database; no cut-off is given here.

Assays:
[1] = Acute toxicity in Balb/C mouse assessed as changes in general appearance at 1250 to 2000 mg/kg, po; format: organism-based; details: in vivo, dose 1250-2000 mg/kg
[2] = system: Rattus norvegicus; experiment: Antihyperlipidemic effect in STZ-induced type 2 diabetes male Wistar albino rat model assessed as triglyceride level at 20 mg/kg, po measured after 4 weeks (reference value: 190.23 +/- 4.37 mg/dL); format: functional
[3] = system: Rattus norvegicus; experiment: Anti-diabetic activity in STZ-induced type 2 diabetes male Wistar albino rat model assessed as fasting blood glucose level at 20 mg/kg, po measured on day 7; format: functional; details: time 7 day
[4] = system: Rattus norvegicus; experiment: Antihyperlipidemic effect in STZ-induced type 2 diabetes male Wistar albino rat model assessed as total cholesterol level at 10 mg/kg, po measured after 4 weeks (reference value: 227.04 +/- 4.10 mg/dL); format: functional
[5] = Acute toxicity in Balb/C mouse assessed as morphological changes in fur at 1250 to 2000 mg/kg, po; format: organism-based; details: in vivo, dose 1250-2000 mg/kg
[6] = system: Rattus norvegicus; experiment: Antihyperlipidemic effect in STZ-induced type 2 diabetes male Wistar albino rat model assessed as LDL level at 10 mg/kg, po measured after 4 weeks (reference value: 184.65 +/- 4.57 mg/dL); format: functional
[7] = system: Rattus norvegicus; experiment: Anti-diabetic activity in normal Wistar rat model assessed as blood glucose level at 20 mg/kg, po followed by treated administered 3 mg/kg orally measured after 120 mins by Oral glucose tolerance test (reference value: 126.5 + /- 3.90 mg/dL); format: functional; details: 2 h
[8] = system: Rattus norvegicus; experiment: Reduction of serum glutamate oxaloacetate transaminase (SGOT) level in STZ-induced type 2 diabetes male Wistar albino rat model at 20 mg/kg, po measured after 4 weeks by hepatic function test; format: functional, organism-based
[9] = system: Rattus norvegicus; experiment: Reduction of serum glutamate pyruvate transaminase (SGPT) level in STZ-induced type 2 diabetes male Wistar albino rat model at 20 mg/kg, po measured after 4 weeks by hepatic function test; format: functional, organism-based
[10] = system: Rattus norvegicus; experiment: Reduction of alkaline phosphatase (ALP) level in STZ-induced type 2 diabetes male Wistar albino rat model at 20 mg/kg, po measured after 4 weeks by hepatic function test; format: functional, organism-based
[11] = system: Rattus norvegicus; experiment: Antihyperlipidemic effect in STZ-induced type 2 diabetes male Wistar albino rat model assessed as LDL level at 20 mg/kg, po measured after 4 weeks (reference value: 184.65 +/- 4.57 mg/dL); format: functional
[12] = system: Rattus norvegicus; experiment: Anti-diabetic activity in normal Wistar rat model assessed as blood glucose level at 10 mg/kg, po followed by treated administered 3 mg/kg orally measured after 90 mins by Oral glucose tolerance test (reference value: 134.11 + /- 4.64 mg/dL); format: functional; details: 1.5 h
[13] = Acute toxicity in Balb/C mouse assessed as morphological changes in skin at 1250 to 2000 mg/kg, po; format: organism-based; details: in vivo, dose 1250-2000 mg/kg
[14] = biological target: Dipeptidyl peptidase 9 (Homo sapiens, UniProt Q86TI2); experiment: Inhibition of DPP9 (unknown origin) assessed as hydrolysis rate using Gly-pro-p-nitroanilide as substrate measured after 20 mins incubation by […] assay
[15] = Acute toxicity in Balb/C mouse assessed as morphological changes in nose at 1250 to 2000 mg/kg, po; format: organism-based; details: in vivo, dose 1250-2000 mg/kg
[16] = system: Rattus norvegicus; experiment: Anti-diabetic activity in normal Wistar rat model assessed as blood glucose level at 10 mg/kg, po followed by treated administered 3 mg/kg orally measured after 60 mins by Oral glucose tolerance test (reference value: 153.74 + /- 3.94 mg/dL); format: functional; details: 1 h
[17] = Acute toxicity in Balb/C mouse assessed as morphological changes in diarrhea at 1250 to 2000 mg/kg, po; format: organism-based; details: in vivo, dose 1250-2000 mg/kg
[18] = system: Rattus norvegicus; experiment: Reduction of insulin level in STZ-induced type 2 diabetes male Wistar albino rat model at 20 mg/kg, po measured after 4 weeks by hepatic function test; format: functional, organism-based
[19] = biological target: Dipeptidyl peptidase 8 (Homo sapiens, UniProt Q6V1X1); experiment: Inhibition of DPP8 (unknown origin) assessed as hydrolysis rate using Gly-pro-p-nitroanilide as substrate measured after 20 mins incubation by […] assay
[20] = system: Rattus norvegicus; experiment: Anti-diabetic activity in normal Wistar rat model assessed as blood glucose level at 20 mg/kg, po followed by treated administered 3 mg/kg orally measured immediately after administration by Oral glucose tolerance test (reference value: 105.12 mg/dL); format: functional
[21] = Acute toxicity in Balb/C mouse assessed as morphological changes in tremors at 1250 to 2000 mg/kg, po; format: organism-based; details: in vivo, dose 1250-2000 mg/kg
[22] = system: Rattus norvegicus; experiment: Anti-diabetic activity in STZ-induced type 2 diabetes male Wistar albino rat model assessed as fasting blood glucose level at 20 mg/kg, po measured on day 14; format: functional; details: time 14 day
[23] = system: Rattus norvegicus; experiment: Reduction of alkaline phosphatase (ALP) level in STZ-induced type 2 diabetes male Wistar albino rat model at 10 mg/kg, po measured after 4 weeks by hepatic function test; format: functional, organism-based
[24] = system: Rattus norvegicus; experiment: Antihyperlipidemic effect in STZ-induced type 2 diabetes male Wistar albino rat model assessed as HDL level at 10 mg/kg, po measured after 4 weeks (reference value: 25.54 +/- 2.62 mg/dL); format: functional
[25] = Acute toxicity in Balb/C mouse assessed as morphological changes in eyes at 1250 to 2000 mg/kg, po; format: organism-based; details: in vivo, dose 1250-2000 mg/kg
[26] = system: Rattus norvegicus; experiment: Reduction of serum glutamate oxaloacetate transaminase (SGOT) level in STZ-induced type 2 diabetes male Wistar albino rat model at 10 mg/kg, po measured after 4 weeks by hepatic function test; format: functional, organism-based
[27] = Acute toxicity in Balb/C mouse assessed as morphological changes in salvation at 1250 to 2000 mg/kg, po; format: organism-based; details: in vivo, dose 1250-2000 mg/kg
[28] = system: Rattus norvegicus; experiment: Antihyperlipidemic effect in STZ-induced type 2 diabetes male Wistar albino rat model assessed as HDL level at 20 mg/kg, po measured after 4 weeks (reference value: 25.54 +/- 2.62 mg/dL); format: functional
[29] = system: Rattus norvegicus; experiment: Anti-diabetic activity in normal Wistar rat model assessed as blood glucose level at 20 mg/kg, po followed by treated administered 3 mg/kg orally measured after 30 mins by Oral glucose tolerance test (reference value: 176.14 + /- 4.04 mg/dL); format: functional; details: 0.5 h
[30] = system: Rattus norvegicus; experiment: Anti-diabetic activity in STZ-induced type 2 diabetes male Wistar albino rat model assessed as fasting blood glucose level at 20 mg/kg, po measured on day 21; format: functional; details: time 21 day
[31] = system: Rattus norvegicus; experiment: Anti-diabetic activity in STZ-induced type 2 diabetes male Wistar albino rat model assessed as fasting blood glucose level at 20 mg/kg, po measured on day 28; format: functional; details: time 28 day
[32] = system: Rattus norvegicus; experiment: Anti-diabetic activity in normal Wistar rat model assessed as blood glucose level at 10 mg/kg, po followed by treated administered 3 mg/kg orally measured after 30 mins by Oral glucose tolerance test (reference value: […] 176.14 + /- 4.04 mg/dL); format: functional; details: 0.5 h
[33] = system: Rattus norvegicus; experiment: Anti-diabetic activity in normal Wistar rat model assessed as blood glucose level at 10 mg/kg, po followed by treated administered 3 mg/kg orally measured after 120 mins by Oral glucose tolerance test (reference value: 126.5 + /- 3.90 mg/dL); format: functional; details: 2 h
[34] = system: Rattus norvegicus; experiment: Antihyperlipidemic effect in STZ-induced type 2 diabetes male Wistar albino rat model assessed as triglyceride level at 10 mg/kg, po measured after 4 weeks (reference value: 190.23 +/- 4.37 mg/dL); format: functional

Chain of Dipeptidyl peptidase 8 (Q6V1X1 whole entry): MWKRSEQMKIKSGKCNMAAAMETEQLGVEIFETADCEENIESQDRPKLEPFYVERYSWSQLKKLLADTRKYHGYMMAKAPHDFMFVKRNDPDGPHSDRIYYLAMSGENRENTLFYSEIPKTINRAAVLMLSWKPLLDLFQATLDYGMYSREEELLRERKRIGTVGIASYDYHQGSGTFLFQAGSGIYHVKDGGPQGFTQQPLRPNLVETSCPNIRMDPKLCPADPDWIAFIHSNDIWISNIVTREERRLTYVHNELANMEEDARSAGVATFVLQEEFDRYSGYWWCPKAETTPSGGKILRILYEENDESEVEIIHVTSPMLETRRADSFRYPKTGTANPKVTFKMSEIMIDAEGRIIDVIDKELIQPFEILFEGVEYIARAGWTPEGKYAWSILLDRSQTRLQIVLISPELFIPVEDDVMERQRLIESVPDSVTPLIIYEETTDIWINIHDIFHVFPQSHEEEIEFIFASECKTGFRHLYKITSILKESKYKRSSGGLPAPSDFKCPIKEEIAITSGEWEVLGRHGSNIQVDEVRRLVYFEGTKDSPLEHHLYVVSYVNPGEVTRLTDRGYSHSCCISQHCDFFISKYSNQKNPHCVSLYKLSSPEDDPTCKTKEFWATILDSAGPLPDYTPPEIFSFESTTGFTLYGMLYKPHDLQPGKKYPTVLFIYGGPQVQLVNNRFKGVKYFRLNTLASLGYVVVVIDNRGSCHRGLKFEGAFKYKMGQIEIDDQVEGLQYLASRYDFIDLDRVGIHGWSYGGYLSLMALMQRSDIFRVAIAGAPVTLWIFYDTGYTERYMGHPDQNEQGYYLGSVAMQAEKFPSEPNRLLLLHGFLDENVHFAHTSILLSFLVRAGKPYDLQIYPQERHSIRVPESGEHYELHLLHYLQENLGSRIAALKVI
Chain of Dipeptidyl peptidase 9 (Q86TI2 whole entry): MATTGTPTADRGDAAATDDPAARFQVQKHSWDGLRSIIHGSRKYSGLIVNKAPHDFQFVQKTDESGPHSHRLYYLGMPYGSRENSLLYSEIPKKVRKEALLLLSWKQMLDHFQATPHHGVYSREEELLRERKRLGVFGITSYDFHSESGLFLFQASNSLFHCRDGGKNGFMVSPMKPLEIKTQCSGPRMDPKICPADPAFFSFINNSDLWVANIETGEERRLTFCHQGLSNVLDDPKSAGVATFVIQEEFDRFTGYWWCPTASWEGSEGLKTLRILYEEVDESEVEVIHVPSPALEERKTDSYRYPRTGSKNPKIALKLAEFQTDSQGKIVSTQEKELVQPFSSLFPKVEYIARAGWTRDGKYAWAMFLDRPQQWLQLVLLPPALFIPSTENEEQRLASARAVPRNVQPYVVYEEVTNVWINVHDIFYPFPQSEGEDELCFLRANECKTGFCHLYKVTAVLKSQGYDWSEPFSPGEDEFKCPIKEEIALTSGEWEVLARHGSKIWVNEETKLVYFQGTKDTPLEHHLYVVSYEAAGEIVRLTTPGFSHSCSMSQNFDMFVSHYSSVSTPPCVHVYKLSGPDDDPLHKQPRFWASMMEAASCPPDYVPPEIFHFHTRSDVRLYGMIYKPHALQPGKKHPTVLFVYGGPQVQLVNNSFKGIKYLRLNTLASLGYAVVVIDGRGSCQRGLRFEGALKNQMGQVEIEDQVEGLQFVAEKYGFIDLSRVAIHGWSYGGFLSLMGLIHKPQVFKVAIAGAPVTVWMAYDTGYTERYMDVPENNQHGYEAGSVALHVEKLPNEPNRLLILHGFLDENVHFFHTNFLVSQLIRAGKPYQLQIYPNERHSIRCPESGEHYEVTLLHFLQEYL

SMILES: CC1=C([N+](=O)[O-])C(c2ccc(F)c(F)c2)N=C(N)N1C(=O)CN1Cc2cn(S(C)(=O)=O)nc2C1 (centres undefined)
- Activity [1]: Non-Toxic
- Activity [2]: 118.76 mg/dL
- Activity [3]: 188 mg/dL
- Activity [4]: 153.02 mg/dL
- Activity [5]: Non-Toxic
- Activity [6]: 135.67 mg/dL
- Activity [7]: 111.56 mg/dL
- Activity [8]: Active
- Activity [9]: Active
- Activity [10]: Active
- Activity [11]: 114.54 mg/dL
- Activity [12]: 113.96 mg/dL
- Activity [13]: Non-Toxic
- IC50 [14]: 864 nM
- Activity [15]: Non-Toxic
- Activity [16]: 118.35 mg/dL
- Activity [17]: Non-Toxic
- Activity [18]: Active
- IC50 [19]: 2900 nM
- Activity [20]: 101.87 mg/dL
- Activity [21]: Non-Toxic
- Activity [22]: 167 mg/dL
- Activity [23]: Active
- Activity [24]: 46.32 mg/dL
- Activity [25]: Non-Toxic
- Activity [26]: Active
- Activity [27]: Non-Toxic
- Activity [28]: 54.1 mg/dL
- Activity [29]: 119.42 mg/dL
- Activity [30]: 134 mg/dL
- Activity [31]: 117 mg/dL
- Activity [32]: 123.04 mg/dL
- Activity [33]: 115.78 mg/dL
- Activity [34]: 150.32 mg/dL
